Source: patent US12195413B2, “Ethynyl derivatives” (Hoffmann-La Roche Inc., priority 2015, dated 2025)

Experiment: rat Vogel conflict drinking test
Type: in vivo

SMILES: CN1C(=O)N(c2ccc(C#Cc3ccccc3)cn2)[C@@H]2CC[C@@H]21 [Example 1, (−)-(1S,5R)-2-methyl-4-(5-(phenylethynyl)pyridin-2-yl)-2,4-diazabicyclo[3.2.0]heptan-3-one]
- anxiolytic activity, minimal effective dose: 0.1 mg/kg
